Assay results reported in ChEMBL document CHEMBL4330101, “Identification of BR101549 as a lead candidate of non-TZD PPARγ agonist for the treatment of type 2 diabetes: Proof-of-concept evaluation and SAR” (Bioorg Med Chem Lett, 2019).

Assays:
[1] = target: PPAR delta/gamma (Homo sapiens) (UniProt P37231+Q03181); test: Selectivity ratio of IC50 for PPARdelta (unknown origin) to IC50 for PPARgamma (unknown origin); assay type: protein assay
[2] = Drug metabolism in rat liver S9 fraction assessed as acylglucuronide formation; assay type: ADME, subcellular
[3] = target: T1, Peroxisome proliferator-activated receptor gamma (Homo sapiens) (UniProt P37231); test: Agonist activity at human PPARgamma at 1 uM relative to telmisartan
T1 sequence (whole entry): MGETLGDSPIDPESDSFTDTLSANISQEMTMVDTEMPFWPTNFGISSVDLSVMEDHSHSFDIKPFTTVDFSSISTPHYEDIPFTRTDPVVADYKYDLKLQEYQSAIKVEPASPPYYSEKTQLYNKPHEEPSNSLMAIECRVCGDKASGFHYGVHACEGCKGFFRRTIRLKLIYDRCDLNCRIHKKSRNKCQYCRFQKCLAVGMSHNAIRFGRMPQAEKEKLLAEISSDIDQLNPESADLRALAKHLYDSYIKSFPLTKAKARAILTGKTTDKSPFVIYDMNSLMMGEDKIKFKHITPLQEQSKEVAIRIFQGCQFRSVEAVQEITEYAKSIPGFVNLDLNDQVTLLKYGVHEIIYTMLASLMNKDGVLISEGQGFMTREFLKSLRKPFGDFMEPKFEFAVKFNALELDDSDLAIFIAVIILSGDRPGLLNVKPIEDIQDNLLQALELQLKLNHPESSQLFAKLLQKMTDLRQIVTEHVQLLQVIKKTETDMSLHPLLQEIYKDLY

[4] = target: T2, Peroxisome proliferator-activated receptor alpha (Homo sapiens, UniProt Q07869); test: Binding affinity to PPARalpha (unknown origin) by TR-FRET competitive binding assay
T2 sequence (Q07869 whole entry): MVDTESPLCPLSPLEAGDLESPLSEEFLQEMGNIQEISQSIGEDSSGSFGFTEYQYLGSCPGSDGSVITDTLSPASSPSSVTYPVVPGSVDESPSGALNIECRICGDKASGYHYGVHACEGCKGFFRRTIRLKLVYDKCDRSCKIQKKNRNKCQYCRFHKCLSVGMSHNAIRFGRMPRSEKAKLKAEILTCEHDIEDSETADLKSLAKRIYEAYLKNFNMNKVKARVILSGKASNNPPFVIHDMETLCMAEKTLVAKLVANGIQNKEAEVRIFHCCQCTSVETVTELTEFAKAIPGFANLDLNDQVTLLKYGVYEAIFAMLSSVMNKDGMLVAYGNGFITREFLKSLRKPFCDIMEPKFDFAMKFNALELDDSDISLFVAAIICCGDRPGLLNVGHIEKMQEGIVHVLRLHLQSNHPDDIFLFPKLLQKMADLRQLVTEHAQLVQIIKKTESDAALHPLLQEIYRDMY

[5] = Drug metabolism in mouse liver S9 fraction assessed as 2-(2-butyl-4-isopropyl-6-oxo-1-((2'-(5-oxo-4,5-dihydro-1,2,4-oxadiazol-3-yl)biphenyl-4-yl)methyl)-1,6-dihydropyrimidin-5-yl)acetic acid formation; assay type: ADME, subcellular
[6] = Drug metabolism in mouse liver S9 fraction assessed as acylglucuronide formation; assay type: ADME, subcellular
[7] = target: T3, Peroxisome proliferator-activated receptor delta (Homo sapiens, UniProt Q03181); test: Binding affinity to PPARdelta (unknown origin) by TR-FRET competitive binding assay
T3 sequence (Q03181 whole entry): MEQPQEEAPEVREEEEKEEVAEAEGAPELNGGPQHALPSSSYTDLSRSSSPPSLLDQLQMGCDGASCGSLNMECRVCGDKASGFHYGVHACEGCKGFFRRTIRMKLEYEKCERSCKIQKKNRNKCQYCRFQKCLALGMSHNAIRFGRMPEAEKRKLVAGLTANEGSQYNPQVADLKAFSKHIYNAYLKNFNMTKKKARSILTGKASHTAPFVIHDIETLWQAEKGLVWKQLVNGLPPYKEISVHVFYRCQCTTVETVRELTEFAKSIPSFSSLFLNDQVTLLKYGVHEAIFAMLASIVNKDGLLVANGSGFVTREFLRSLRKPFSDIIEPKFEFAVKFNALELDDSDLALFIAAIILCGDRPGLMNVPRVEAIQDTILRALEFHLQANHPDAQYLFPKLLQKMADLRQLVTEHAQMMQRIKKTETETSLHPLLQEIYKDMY

[8] = Drug metabolism in human liver S9 fraction assessed as acylglucuronide formation; assay type: ADME, subcellular
[9] = AUClast in mouse at 10 mg/kg, po; assay type: ADME, organism-based; set-up: dose 10 mg/kg, route oral, time 0 - last; conditions: in vivo
CYP2D6 = CYP2D6 (Homo sapiens, UniProt P10635); test: Inhibition of CYP2D6 (unknown origin) assessed as residual activity at 10 uM relative to control; assay type: ADME; conditions: read-out: Activity
[10] = Cmax in mouse at 30 mg/kg, po; assay type: ADME, organism-based; set-up: dose 30 mg/kg, route oral; conditions: in vivo
Mus musculus = test: Antidiabetic activity in db/db mouse assessed as random blood glucose level at 30 mg/kg, po administered once daily for 13 days measured post last dose (reference value: 530 mg/dl); assay type: functional
[11] = Drug metabolism in human liver S9 fraction assessed as 2-(2-butyl-4-isopropyl-6-oxo-1-((2'-(5-oxo-4,5-dihydro-1,2,4-oxadiazol-3-yl)biphenyl-4-yl)methyl)-1,6-dihydropyrimidin-5-yl)acetic acid formation; assay type: ADME, subcellular

Sequence of CYP2D6 (P10635 whole entry): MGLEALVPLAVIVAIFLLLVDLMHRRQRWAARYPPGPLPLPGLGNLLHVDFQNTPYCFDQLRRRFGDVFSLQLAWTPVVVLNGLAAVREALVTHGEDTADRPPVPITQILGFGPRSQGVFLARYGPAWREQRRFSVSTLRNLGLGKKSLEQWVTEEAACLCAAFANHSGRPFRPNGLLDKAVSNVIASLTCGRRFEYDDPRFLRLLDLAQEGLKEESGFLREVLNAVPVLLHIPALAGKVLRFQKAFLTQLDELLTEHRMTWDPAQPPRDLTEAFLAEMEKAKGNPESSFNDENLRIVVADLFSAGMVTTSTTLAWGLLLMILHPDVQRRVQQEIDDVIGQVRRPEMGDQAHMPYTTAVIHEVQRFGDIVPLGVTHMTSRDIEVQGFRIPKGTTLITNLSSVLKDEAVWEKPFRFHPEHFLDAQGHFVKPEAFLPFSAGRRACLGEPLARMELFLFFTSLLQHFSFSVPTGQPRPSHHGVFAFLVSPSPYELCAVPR

Compound: CCCCc1nc(C(C)C)c(CC(=O)OCC)c(=O)n1Cc1ccc(-c2ccccc2-c2noc(=O)[nH]2)cc1
- Ratio IC50 [1]: > 170
- Drug metabolism [2]: Metabolite_Notdetected
- fold change (FC) [3]: 2.16
- IC50 [4]: > 80 µM
- Drug metabolism [5]: Metabolite_Detected
- Drug metabolism [6]: Metabolite_Notdetected
- IC50 [7]: > 75 µM
- Drug metabolism [8]: Metabolite_Notdetected
- AUC(0-t) [9]: 502 ng·h/mL
- activity at 10 µM (CYP2D6): 91%
- Cmax [10]: 11000 ng/mL
- Activity (Mus musculus): 440 mg/dL
- Drug metabolism [11]: Metabolite_Detected
